Reference: PubChem BioAssay (NCI)
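These data come from cells grown in 96-well plates and exposed to compound for 48 hours at five concentrations. Definition used: TGI = concentration required for complete inhibition of growth.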

Tests used:
Assay in all cases: growth of human tumour cells (NCI), 48 h
[1] = tested on: KM20L2 colon
[2] = tested on: SNB-78 CNS
[3] = tested on: LXFL 529 NSCLC
[4] = tested on: DMS 114 small cell lung
[5] = tested on: XF 498 CNS
[6] = tested on: DMS 273 small cell lung
[7] = tested on: M19-MEL melanoma
[8] = tested on: HOP-18 NSCLC
[9] = tested on: RXF-631 renal

Row | Compound | TGI [1] | TGI [2] | TGI [3] | TGI [4] | TGI [5] | TGI [6] | TGI [7] | TGI [8] | TGI [9]
1 | O=C(O)C(Cc1c[nH]c2ccccc12)N=Cc1nc(-c2ccccc2)oc1O (stereo not drawn) | > 100 µM | > 100 µM | > 100 µM | > 100 µM | > 100 µM | > 100 µM | > 100 µM | – | –
2 | CC(=O)Nc1ccc(C(=O)NN2C(=O)C(Cl)C2c2cc(Br)ccc2O)cc1 (stereo not drawn) | – | – | > 100 µM | – | – | – | 33.7 µM | 62 µM | –
3 | C=C[C@]1(C)CCC2=C(CCC3C2(C)CCC[C@]3(C)CO)C1 (stereo partly drawn) | 42.3 µM | > 100 µM | > 100 µM | 74.6 µM | > 100 µM | > 100 µM | > 100 µM | > 100 µM | > 100 µM
4 | COC1C=CC(C(=O)[N+]2=Cc3[nH]c4ccccc4c3CC2)O1 (stereo not drawn) | > 100 µM | > 100 µM | > 100 µM | > 100 µM | – | > 100 µM | > 100 µM | > 100 µM | > 100 µM
5 | COc1ccc(NC(=O)C(=O)C2CNC(=O)NC2=O)c(OC)c1 (stereo not drawn) | > 100 µM | > 100 µM | > 100 µM | > 100 µM | > 100 µM | > 100 µM | – | > 100 µM | –
6 | CCOc1ccccc1N=Nc1c(-c2ccccc2)nn(C(=O)CC(=O)Nc2cccc(Cl)c2)c1-c1ccccc1 | > 100 µM | > 100 µM | > 100 µM | > 100 µM | > 100 µM | > 100 µM | > 100 µM | > 100 µM | –
7 | O=C1CCCC2=C(N1)C(=O)C=CC2=O | > 100 µM | > 100 µM | > 100 µM | > 56.5 µM | > 100 µM | > 100 µM | > 100 µM | > 100 µM | > 100 µM
8 | CCOC(=O)C(Cc1ccccc1)NC(=O)c1ccc(N=NN(C)C)cc1 (stereo not drawn) | – | – | > 100 µM | > 100 µM | – | > 100 µM | > 100 µM | – | –
9 | O=C(NCc1ccccc1)c1cc2cc(O)c(O)cc2cn1 | 84.6 µM | > 100 µM | > 100 µM | 24 µM | 90.3 µM | 23.2 µM | 77.3 µM | 41.4 µM | –
10 | CCCN1CN(C(C(=O)N[C@@H]2C(=O)N3C2SC(C)(C)C3C(=O)O)c2ccccc2)CSC1=S (stereo partly drawn) | > 100 µM | > 100 µM | > 100 µM | 94.1 µM | > 100 µM | > 100 µM | > 100 µM | > 100 µM | –
11 | COC(=O)N/N=C(/CCN1CCCC1)CC(c1ccccc1)c1c(O)c2ccccc2oc1=O (stereo not drawn) | > 100 µM | > 100 µM | > 100 µM | – | > 100 µM | > 100 µM | > 100 µM | > 100 µM | –
12 | Cc1ccc([N+](=O)[O-])cc1NC(=O)C(=O)Cc1occc(=O)c1O | > 100 µM | – | – | > 100 µM | > 100 µM | – | > 100 µM | > 100 µM | –
